Values after ≈ are worked out from the molar mass of the structure shown. Read-outs that look alike come from different tables or passages of the source.
Legend:
S. aureus = experiment: MIC assay according to CLSI criteria, Example 2, S. aureus strains; format: cell-based, Staphylococcus aureus; settings: for MIC: Staphylococcus aureus, read-out: MIC
Outline: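 Broth microdilution per CLSI in cation-adjusted Mueller Hinton broth, ~5×10^5 exponential-phase cells per well, aerobic at 37° C for 18 hours; OD600 read at end.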

P. acnes = format: cell-based, Propionibacterium acnes; settings: for Frequency of mutation/ml: MIC × 4

O=C(Nc1ccc([N+](=O)[O-])cc1Cl)c1cc(Cl)ccc1O [Niclosamide, niclosamide]
MIC distribution: percentage of Staphylococcus aureus strains (S. aureus; MIC 0.5 μg/ml, 205 strains): 27% (55/205) | MIC50 (S. aureus; Staphylococcus aureus strains): 0.25 µg/mL (≈ 0.764 µM) | MIC90 (S. aureus; Staphylococcus aureus strains): 0.5 µg/mL (≈ 1.53 µM) | MIC (S. aureus; MRSA, strain MRSA 01): 0.25 µg/mL (≈ 0.764 µM) | MIC (S. aureus; MRSA, strain MRSA 02): 0.25 µg/mL (≈ 0.764 µM) | MIC (S. aureus; MRSA, strain MRSA 03): 0.25 µg/mL (≈ 0.764 µM) | MIC (S. aureus; MRSA, strain MRSA 04): 0.25 µg/mL (≈ 0.764 µM) | MIC (S. aureus; MRSA, strain MRSA 05): 0.25 µg/mL (≈ 0.764 µM) | MIC (S. aureus; MRSA, strain MRSA 06): 0.25 µg/mL (≈ 0.764 µM) | MIC (S. aureus; MRSA, strain MRSA 08): 0.25 µg/mL (≈ 0.764 µM) | MIC (S. aureus; MRSA, strain MRSA 10): 0.25 µg/mL (≈ 0.764 µM) | MIC (S. aureus; MRSA, strain MRSA 11): 0.25 µg/mL (≈ 0.764 µM) | MIC (S. aureus; MRSA, strain MRSA 12): 0.5 µg/mL (≈ 1.53 µM) | MIC (S. aureus; MRSA, strain MRSA 13): 0.25 µg/mL (≈ 0.764 µM) | MIC (S. aureus; MRSA, strain MRSA 14): 0.25 µg/mL (≈ 0.764 µM) | MIC (S. aureus; MRSA, strain MRSA 15): 0.25 µg/mL (≈ 0.764 µM) | MIC (S. aureus; MRSA, strain MRSA 16): 0.25 µg/mL (≈ 0.764 µM) | MIC (S. aureus; MRSA, strain MRSA 17): 0.25 µg/mL (≈ 0.764 µM) | MIC (S. aureus; MRSA, strain MRSA 18): 0.25 µg/mL (≈ 0.764 µM) | MIC (S. aureus; MRSA, strain MRSA 19): 0.25 µg/mL (≈ 0.764 µM) | MIC (S. aureus; MRSA, strain MRSA 20): 0.25 µg/mL (≈ 0.764 µM) | MIC (S. aureus; MRSA, strain MRSA 21): 0.25 µg/mL (≈ 0.764 µM) | MIC (S. aureus; MRSA, strain MRSA 22): 0.25 µg/mL (≈ 0.764 µM) | MIC (S. aureus; MRSA, strain MRSA 23): 0.25 µg/mL (≈ 0.764 µM) | MIC (S. aureus; MRSA, strain MRSA 24): 0.25 µg/mL (≈ 0.764 µM) | MIC (S. aureus; MRSA, strain MRSA 25): 0.25 µg/mL (≈ 0.764 µM) | MIC (S. aureus; MRSA, strain MRSA 26): 0.5 µg/mL (≈ 1.53 µM) | MIC (S. aureus; MRSA, strain MRSA 27): 0.5 µg/mL (≈ 1.53 µM) | MIC (S. aureus; MRSA, strain MRSA 28): 0.25 µg/mL (≈ 0.764 µM) | MIC (S. aureus; MRSA, strain MRSA 29): 0.5 µg/mL (≈ 1.53 µM) | MIC (S. aureus; MRSA, strain MRSA 30): 0.25 µg/mL (≈ 0.764 µM) | MIC (S. aureus; MRSA, strain MRSA 31): 0.25 µg/mL (≈ 0.764 µM) | MIC (S. aureus; MRSA, strain MRSA 32): 0.25 µg/mL (≈ 0.764 µM) | MIC (S. aureus; MRSA, strain MRSA 33): 0.25 µg/mL (≈ 0.764 µM) | MIC (S. aureus; MRSA, strain MRSA 34): 0.25 µg/mL (≈ 0.764 µM) | MIC (S. aureus; MRSA, strain MRSA 35): 0.25 µg/mL (≈ 0.764 µM) | MIC (S. aureus; MRSA, strain MRSA 70): 0.125 µg/mL (≈ 0.382 µM) | MIC (S. aureus; MRSA, strain MRSA 73): 0.5 µg/mL (≈ 1.53 µM) | MIC (S. aureus; MRSA, strain MRSA 75): 0.5 µg/mL (≈ 1.53 µM) | MIC (S. aureus; MRSA, strain MRSA 78): 0.5 µg/mL (≈ 1.53 µM) | MIC (S. aureus; MRSA, strain MRSA 80): 0.5 µg/mL (≈ 1.53 µM) | MIC (S. aureus; MRSA, strain MRSA 81): 0.5 µg/mL (≈ 1.53 µM) | MIC (S. aureus; MRSA, strain MRSA 83): 0.5 µg/mL (≈ 1.53 µM) | MIC (S. aureus; MRSA, strain MRSA 88): 0.25 µg/mL (≈ 0.764 µM) | MIC (S. aureus; MRSA, strain MRSA 90): 0.5 µg/mL (≈ 1.53 µM) | MIC (S. aureus; MRSA, strain MRSA 91): 0.25 µg/mL (≈ 0.764 µM) | MIC (S. aureus; MRSA, strain MRSA 92): 0.25 µg/mL (≈ 0.764 µM) | MIC (S. aureus; MRSA, strain MRSA 93): 0.25 µg/mL (≈ 0.764 µM) | MIC (S. aureus; MRSA, strain MRSA 94): 0.25 µg/mL (≈ 0.764 µM) | MIC (S. aureus; MRSA, strain MRSA 95): 0.25 µg/mL (≈ 0.764 µM) | MIC (S. aureus; MRSA, strain MRSA 96): 0.25 µg/mL (≈ 0.764 µM) | MIC (S. aureus; MRSA, strain MRSA 97): 0.25 µg/mL (≈ 0.764 µM) | MIC (S. aureus; MRSA, strain MRSA 98): 0.5 µg/mL (≈ 1.53 µM) | MIC (S. aureus; MRSA, strain MRSA 99): 0.25 µg/mL (≈ 0.764 µM) | MIC (S. aureus; MRSA, strain MRSA 100): 0.25 µg/mL (≈ 0.764 µM) | MIC (S. aureus; MRSA, strain MRSA 101): 0.5 µg/mL (≈ 1.53 µM) | MIC (S. aureus; MRSA, strain MRSA 102): 0.25 µg/mL (≈ 0.764 µM) | MIC (S. aureus; MRSA, strain MRSA 103): 0.25 µg/mL (≈ 0.764 µM) | MIC (S. aureus; MRSA, strain MRSA 104): 0.5 µg/mL (≈ 1.53 µM) | MIC (S. aureus; MRSA, strain MRSA 105): 0.25 µg/mL (≈ 0.764 µM) | MIC (S. aureus; MRSA, strain MRSA 106): 0.25 µg/mL (≈ 0.764 µM) | MIC (S. aureus; MRSA, strain MRSA 107): 0.25 µg/mL (≈ 0.764 µM) | MIC (S. aureus; MRSA, strain MRSA 108): 0.25 µg/mL (≈ 0.764 µM) | MIC (S. aureus; MRSA, strain MRSA 109): 0.25 µg/mL (≈ 0.764 µM) | MIC (S. aureus; MRSA, strain MRSA 110): 0.25 µg/mL (≈ 0.764 µM) | MIC (S. aureus; MRSA, strain MRSA 111): 0.5 µg/mL (≈ 1.53 µM) | MIC (S. aureus; MRSA, strain MRSA 112): 0.25 µg/mL (≈ 0.764 µM) | MIC (S. aureus; MRSA, strain MRSA 113): 0.25 µg/mL (≈ 0.764 µM) | MIC (S. aureus; MSSA, strain MSSA 01): 0.5 µg/mL (≈ 1.53 µM) | MIC (S. aureus; MSSA, strain MSSA 02): 0.25 µg/mL (≈ 0.764 µM) | MIC (S. aureus; NEWMAN, strain Newman): 0.25 µg/mL (≈ 0.764 µM) | frequency of mutation of resistance (P. acnes; P. acnes): less than 1×10^−9 | frequency of mutation, times lower than the two comparator compounds fusidic acid and retapamulin (P. acnes; P. acnes): at least 10 times | Frequency of mutation/ml (P. acnes; P. acnes strain 998): <2.5e-09 mL⁻¹ | Frequency of mutation/ml (P. acnes; P. acnes strain 1044): <1.92e-08 mL⁻¹ | Frequency of mutation/ml (P. acnes; P. acnes strain CSS3023): <4.55e-09 mL⁻¹ | Frequency of mutation/ml (P. acnes; P. acnes strain CSS3288): <2.7e-09 mL⁻¹

From patent US12036312B2, “Non-aqueous topical compositions comprising a halogenated salicylanilide” (priority 2016, dated 2024)
